Test results from PubChem BioAssay AID330 (DTP/NCI, 2004).
Where “and” joins values, the source holds several entries; their conditions need not be identical. Equal values may be shown once. Inconclusive results and toxic doses are left out.

Tested on: P388 leukemia ip, CD2F1 mice, survival T/C
Assay: NCI In Vivo Anticancer Drug Screen. Data for tumor model P388 Leukemia (intraperitoneal) in CD2F1 (CDF1) mice
Conditions: endpoint: median survival time, higher = longer survival
Method in brief: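 Mice carrying the transplanted tumor received test compound or vehicle. Survival was recorded in each group, and the value is the treated-group measurement divided by that of the vehicle-treated control group.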

[1] = dose: 50.0 mg/kg/injection, schedule: Q01DX005 (ip), vehicle: saline with Tween-80
[2] = dose: 100.0 mg/kg/injection, schedule: Q01DX005 (ip), vehicle: saline with Tween-80
[3] = dose: 50.0 mg/kg/injection, schedule: Q01DX005 (ip), vehicle: Klucel (hydroxypropylcellulose) (HPC)
[4] = dose: 50.0 mg/kg/injection, schedule: Q01DX009 (ip), vehicle: Klucel (hydroxypropylcellulose) (HPC)
[5] = dose: 100.0 mg/kg/injection, schedule: Q01DX009 (ip), vehicle: Klucel (hydroxypropylcellulose) (HPC)
[6] = dose: 200.0 mg/kg/injection, schedule: Q01DX009 (ip), vehicle: Klucel (hydroxypropylcellulose) (HPC)

For `C(#Cc1ccccc1)/C=C/C(=C\c1ccccc1)c1ccccc1`, the T/C (dose: 12.5 mg/kg/injection, schedule: Q01DX005 (ip), vehicle: saline with Tween-80) was 101 % of control, the T/C (dose: 25.0 mg/kg/injection, schedule: Q01DX005 (ip), vehicle: saline with Tween-80) was 102 % of control and the T/C [1] was 101 % of control. For the same compound, the T/C [2] was 100 % of control.

`O=C(N=Nc1c(Cl)c(O)c2ccccc2c1O)C(=O)Nc1cccc(C(F)(F)F)c1` was tested, and the T/C (dose: 6.25 mg/kg/injection, schedule: Q01DX005 (ip), vehicle: Klucel (hydroxypropylcellulose) (HPC)) was 107 % of control, the T/C (dose: 12.5 mg/kg/injection, schedule: Q01DX005 (ip), vehicle: Klucel (hydroxypropylcellulose) (HPC)) was 107 % of control and the T/C (dose: 25.0 mg/kg/injection, schedule: Q01DX005 (ip), vehicle: Klucel (hydroxypropylcellulose) (HPC)) was 107 % of control. For the same compound, the T/C [3] was 98 % of control.

`CCc1c(Cc2[nH]c(C=O)c(C)c2CC)[nH]c(C=O)c1C` was tested, and the T/C [1] was 100 % of control, the T/C [2] was 100 % of control and the T/C (dose: 200.0 mg/kg/injection, schedule: Q01DX005 (ip), vehicle: saline with Tween-80) was 100 % of control.

`CCOC(=O)Nc1cc(Cl)c([N+](=O)[O-])c([N+](=O)[O-])n1` was tested, and the T/C (dose: 100.0 mg/kg/injection, schedule: Q04DX002 (ip), vehicle: saline) was 101 % of control, the T/C (dose: 200.0 mg/kg/injection, schedule: Q04DX002 (ip), vehicle: saline) was 103 % of control and the T/C (dose: 400.0 mg/kg/injection, schedule: Q04DX002 (ip), vehicle: saline) was 110 % of control.

In the case of `CCN(CC)CCSSCCN(CC)CC.[Cl][Mn][Cl]`, the T/C [3] is reported as 114 % of control and the T/C (dose: 100.0 mg/kg/injection, schedule: Q01DX005 (ip), vehicle: Klucel (hydroxypropylcellulose) (HPC)) is reported as 117 % of control.

`CCCCCCCCCCCCCCCCOc1ccc(S(=O)(=O)Nc2ccc(N)cc2O)cc1` was tested, and the T/C [4] was 110 % of control, the T/C [5] was 94 % of control and the T/C [6] was 112 % of control.

`O=c1cc(CC(O)c2ccccc2)c2ccccc2[nH]1` (stereo not given) was tested, and the T/C (dose: 100.0 mg/kg/injection, schedule: Q04DX002 (ip), vehicle: saline with Tween-80) was 95 % of control, the T/C (dose: 200.0 mg/kg/injection, schedule: Q04DX002 (ip), vehicle: saline with Tween-80) was 94 % of control and the T/C (dose: 400.0 mg/kg/injection, schedule: Q04DX002 (ip), vehicle: saline with Tween-80) was 91 % of control.

With `COc1cc2c(c(OC)c1OC)-c1ccc(SC)c(=O)cc1[C@@H](NC1OC(COC(C)=O)C(OC(C)=O)C(OC(C)=O)C1OC(C)=O)CC2` (stereo not given in full) the T/C (dose: 0.75 mg/kg/injection, schedule: Q01DX009 (ip), vehicle: other) was 97 % of control, the T/C (dose: 1.5 mg/kg/injection, schedule: Q01DX009 (ip), vehicle: other) was 97 % of control and the T/C (dose: 3.0 mg/kg/injection, schedule: Q01DX009 (ip), vehicle: other) was 102 % of control. For the same compound, the T/C (dose: 6.0 mg/kg/injection, schedule: Q01DX009 (ip), vehicle: other) was 107 % of control, the T/C (dose: 12.0 mg/kg/injection, schedule: Q01DX009 (ip), vehicle: other) was 117 % of control and the T/C (dose: 24.0 mg/kg/injection, schedule: Q01DX009 (ip), vehicle: other) was 120 % of control. The T/C (dose: 192.0 mg/kg/injection, schedule: Q01DX009 (ip), vehicle: other) was 150 % of control.

In the case of `CCCCCCCCCC1OCN2CCCCC12` (stereo not given), the T/C (dose: 50.0 mg/kg/injection, schedule: Q01DX005 (ip), vehicle: saline) is reported as 105 % of control, the T/C (dose: 100.0 mg/kg/injection, schedule: Q01DX005 (ip), vehicle: saline) is reported as 96 % of control and the T/C (dose: 200.0 mg/kg/injection, schedule: Q01DX005 (ip), vehicle: saline) is reported as 115 % of control.

For `OCCN1CCC2(CC1)SSC1(CCN(CCO)CC1)S2`, the T/C (dose: 50.0 mg/kg/injection, schedule: Q04DX003 (ip), vehicle: saline) was 100 % of control, the T/C (dose: 100.0 mg/kg/injection, schedule: Q04DX003 (ip), vehicle: saline) was 100 % of control and the T/C (dose: 200.0 mg/kg/injection, schedule: Q04DX003 (ip), vehicle: saline) was 100 % of control.

For `O=C1NC(=O)[C@H]2C[C@H]3C(=O)NC(=O)[C@H]3[C@@H]12`, the T/C (dose: 25.0 mg/kg/injection, schedule: Q01DX009 (ip), vehicle: Klucel (hydroxypropylcellulose) (HPC)) was 99 % of control, the T/C [4] was 101 % of control and the T/C [5] was 102 % of control and 107 % of control. For the same compound, the T/C [6] was 101 % of control and 107 % of control and the T/C (dose: 400.0 mg/kg/injection, schedule: Q01DX009 (ip), vehicle: Klucel (hydroxypropylcellulose) (HPC)) was 96 % of control.
